Results published in patent publication US20190152993A1, “Reversibly Switchable Surfactants and Methods of Use” (WARNER BABCOCK INSTITUTE FOR GREEN CHEMISTRY, LLC, priority 2016, published 2019).
Marks after values point to notes of the source that are not given here.

What was measured:
[1] = Lifetimes (half-life) of the activated merocyanine surfactants in solvents; format: physicochemical; conditions: error limits 10-20%
Experimental: Lifetimes of the activated zwitterionic merocyanine isomers of compounds 4a, 4b, 4c, and 4e in several solvents were determined.
The spiropyran compound 4 was added to a solvent in a 1-cm quartz cuvette and the cuvette was irradiated with ultraviolet light at 365 nm for ˜60 seconds. […] Absorption spectra were recorded from 450 to 650 nm every 5 seconds over a 350-second observation time. The concentrations of the merocyanine were adjusted so that the initial t=0 absorbance at the absorption maximum (λmax) was in the range of 1-1.4. All kinetics experiments were done in triplicate once an appropriate spiropyran/merocyanine surfactant concentration was determined. The absorbances at λmax were normalized to the highest value, and the three data sets averaged to give the normalized absorbances as a function of time. If the normalized absorbance had dropped to at least 0.5 during the 350-s monitoring time, the half-life was taken as the time at which the normalized absorbance had reached 0.5.

[2] = Separate experiment: solubility of palmitic acid in hexanes with switchable surfactant activation; format: physicochemical; conditions: 1 mg/mL surfactant
From the text: The second vial was exposed to 365-nm ultraviolet light that activated the surfactant; the solution turned magenta due to the color of the merocyanine.

[3] = in acetone, after 365 nm irradiation
[4] = in cyclohexane, after 365 nm irradiation
[5] = in ethanol, longer than 350 s monitoring, by extrapolation of exponential fit
[6] = in ethyl acetate, after 365 nm irradiation
[7] = in methanol, longer than 350 s monitoring, by extrapolation of exponential fit
[8] = in octanol, longer than 350 s monitoring, by extrapolation of exponential fit
[9] = in toluene, after 365 nm irradiation

Merocyanine Half-life [1, 3] [s]	Merocyanine Half-life [1, 4] [s]	Merocyanine Half-life [1, 5] [s]	Merocyanine Half-life [1, 6] [s]	Merocyanine Half-life [1, 7]	Merocyanine Half-life [1, 8] [s]	Merocyanine Half-life [1, 9] [s]	reversibility after UV-treated solution placed in the dark ([2]; 53 mg/mL palmitic acid)	palmitic acid dissolved with activated surfactant ([2]; 53 mg/mL palmitic acid charged, 365-nm ultraviolet light) [mg/mL]	dissolution of palmitic acid with ground-state surfactant ([2]; 53 mg/mL palmitic acid charged, kept in the dark)	Structure (SMILES)
130	44	1300	23	23000 s	610	32				CCCC[N+]1=C(/C=C/c2cc([N+](=O)[O-])ccc2[O-])C(C)(C)c2ccccc21 [5b]
114	40	1450	20	11000 s	830	49				CCCCCCCCCCCCCCCCCC[N+]1=C(/C=C/c2cc([N+](=O)[O-])ccc2[O-])C(C)(C)c2ccccc21 [5e]

Continued, compound first:

Structure (SMILES)	Merocyanine Half-life [1, 3] [s]	Merocyanine Half-life [1, 4] [s]	Merocyanine Half-life [1, 5] [s]	Merocyanine Half-life [1, 6] [s]	Merocyanine Half-life [1, 7]	Merocyanine Half-life [1, 8] [s]	Merocyanine Half-life [1, 9] [s]	reversibility after UV-treated solution placed in the dark ([2]; 53 mg/mL palmitic acid)	palmitic acid dissolved with activated surfactant ([2]; 53 mg/mL palmitic acid charged, 365-nm ultraviolet light) [mg/mL]	dissolution of palmitic acid with ground-state surfactant ([2]; 53 mg/mL palmitic acid charged, kept in the dark)
C[N+]1=C(/C=C/c2cc([N+](=O)[O-])ccc2[O-])C(C)(C)c2ccccc21 [5a]	103	14	1200	19	4900 s	610	16			
CCCCCCCCCCCCCCCCCCN1c2ccccc2C(C)(C)C12C=Cc1cc([N+](=O)[O-])ccc1O2 (stereo not shown) [4e, 3′,3′-Dimethyl-6-nitro-1′-octadecylspiro[chromene-2,2′-indoline]]								precipitate began to form	53	not fully dissolved
CCCCCCCC[N+]1=C(/C=C/c2cc([N+](=O)[O-])ccc2[O-])C(C)(C)c2ccccc21 [5c]	153	40	1500	20	>10^4‡ seconds	610	38			
